{
  "source": "patent US12708673B2",
  "about": "“Methods and compositions related to peptides and proteins with c-terminal elements” (Sanford Burnham Prebys Medical Discovery Institute, priority 2008, dated 2026)",
  "key": {"4T1": {"system": "4T1", "assay": "RPARPAR phage binding to cultured cells at 4° C.", "type": "cell-based", "conditions": "4T1 breast cancer", "procedure": "(§1) FIG. 15A: Binding of RPARPAR (SEQ ID NO:2) phage to the cultured cells at 4° C. in vitro. FIG. 15B: Binding of RPARPAR (SEQ ID NO:2) phage to primary cell suspensions of mouse organs at 4° C. ex vivo. FIGS. 15C and 15D: Tissue distribution of intravenously injected RPARPAR (SEQ ID NO:2) phage after 20 minutes of circulation time. FIG. 15C: Phage was quantified by titration, tissue binding is expressed as fold G7 phage. Statistical analysis was performed by Student's t-test (c). n=3; error bars indicate s.d.; double asterisk, p<0.01, triple asterisk, p<0.001. FIG. 15D (panels d and e): Immunofluorescence localization of T7 phage (light coloring) in lung sections of mice injected intravenously with RPARPAR (SEQ ID NO:2) (d) or G7 (e) phage. Widespread immunoreactivity is present in the lungs of mice injected with RPARPAR (SEQ ID NO:2) (arrowheads in d) but not G7 (with occasional labeling seen in vessels, arrows in e). Scale bar: 50 μm.\n(§2) Phage display. For in vivo phage display, mice were injected intravenously with 10^10 plaque-forming units (pfu) of T7 phage followed by perfusion of the circulatory system and determination of the bound phage in target organs by titration. For cell binding studies on cultured cells (in vitro display) and organ-derived cell suspensions (ex vivo display), the cells were incubated with 10^9 pfu of phage at 4° C., washed, lysed, and quantified by titration. Incubation at 37° C. followed by low pH wash (glycine-HCl, pH 2.5) was used to assess the amount of internalized phage.\n(§3) For biopanning and phage binding studies (Hoffman, J. A. et al., 2004), cultured cells were grown to confluence and harvested with trypsin and mouse organs were dissociated using Medimachine (BD Biosciences, San Jose, CA). To measure phage binding, 10^6 cells in binding buffer (DMEM containing 1% BSA) were incubated with 10^9 pfu/ml of T7 phage for 1 hour at 4° C. The cells were washed 4 times with the binding buffer, lysed in LB bacterial growth medium containing 1% NP-40, and titrated. Phage internalization assays used the same procedure, except that the cells were incubated with the phage at 37° C., and that an acidic buffer (500 mM sodium chloride, 0.1 M glycine, 1% BSA, pH 2.5) was used instead of binding buffer in the second wash."}, "PDAC1.3": {"system": "PDAC1.3", "assay": "RPARPAR phage binding to cultured cells at 4° C.", "type": "cell-based", "conditions": "PDAC1.3 pancreatic carcinoma", "procedure": "as §1, §2, §3"}, "[1]": {"system": "murine vascular endothelial cells (F2)", "assay": "RPARPAR phage binding to cultured cells at 4° C.", "type": "cell-based", "procedure": "as §1, §2, §3"}, "[2]": {"system": "MDA-MB-435 human cancer cells", "assay": "RPARPAR phage binding to cultured cells at 4° C.", "type": "cell-based", "procedure": "as §1, §2, §3"}, "M21 melanoma cells": {"system": "M21 melanoma cells", "assay": "RPARPAR phage binding to cultured cells at 4° C.", "type": "cell-based", "conditions": "non-transfected M21", "procedure": "as §1, §2, §3"}, "[3]": {"system": "human umbilical vein endothelial cells (HUVEC)", "assay": "RPARPAR phage binding to cultured cells at 4° C.", "type": "cell-based", "procedure": "as §1, §2, §3"}, "MIA PaCa-2": {"system": "MIA PaCa-2", "assay": "RPARPAR phage binding to cultured cells at 4° C.", "type": "cell-based", "conditions": "MIA PaCa-2 pancreatic carcinoma", "procedure": "as §1, §2, §3"}, "B16F10": {"system": "B16F10", "assay": "RPARPAR phage binding to cultured cells at 4° C.", "type": "cell-based", "conditions": "B16F10 melanoma cells", "procedure": "as §1, §2, §3"}, "PPC-1 cells [4]": {"system": "PPC-1 cells", "assay": "T7 phage internalization into PPC-1 (PPC1) cells at 37° C. (acid wash and titration, or anti-T7 staining and confocal imaging)", "type": "cell-based, human", "procedure": "FIG. 2A: Binding of T7 phage to prostate cancer cells depends on the display of a C-terminal arginine on the phage particles. PPC1 cells were incubated with T7 bacteriophage displaying derivatives of the G7 (upper graph) or RPARPAR peptide (SEQ ID NO: 2) (lower graph) at 4° C., and the bound phage was quantified by plaque assay. Binding is expressed in fold over of the non-binding G7 control phage. FIG. 2B: Phage displaying C-terminal arginine is internalized into cultured PPC1 cells (arrow, nuclear internalization; arrowhead, cytoplasmic internalization). A panel of T7 phage clones were incubated at 37° C. with PPC1 cells grown on collagen-coated coverslips, stained with anti T7 antibody and imaged by confocal microscopy.\nas §2, §3\nCentrifugation on a silicone oil cushion (1.03 g/ml) was used to separate unbound phage from cells during time course experiments. Inhibitors of phage binding and internalization (heparin, chondroitin, glycocalyx removal enzymes, endocytosis inhibitors, free peptides, quantum dots and UV-inactivated phage) were added to the cells 20 minutes prior to incubation with phage. Endocytosis inhibitors used in this study were the following: nystatin (50 μg/ml), genistein (100 μg/ml), chlorpromazine (5 μg/ml), 5-(N-ethyl-N-isopropyl) amiloride (100 μM), wortmannin (10 μM).\nImmunofluorescence staining. Cultured cells (2×10^5 cells) were grown in 6-well tissue culture plates on collagen-I coated coverslips (BD Biosciences, San Jose, CA) overnight at 37° C. in 5% CO2, and incubated with 10^8 pfu of T7 phage. The cells were fixed in 4% paraformaldehyde or cold (−20° C.) methanol, and stained with antibodies. Nuclei were stained with DAPI or […]. A polyclonal rabbit anti-T7 antibody was generated in-house as described previously (Laakkonen, P. et al. 2002b), except that an additional phage purification step using […] centrifugation was included. Other primary antibodies used were rat anti-mouse CD31 monoclonal antibody (BD Biosciences), rabbit anti-NRP-1, mouse anti-human Lamp-1, mouse anti-human caveolin (Millipore, Temecula, CA), mouse anti-NRP-1 (Miltenyi Biotec Inc., Auburn, CA), mouse anti-human EEA-1 (BD Biosciences, San Jose, CA). The secondary antibodies, Alexa594 goat antibodies to mouse, rat, and rabbit immunoglobulins and Alexa488 donkey anti-rabbit antibody were from Invitrogen (Carlsbad, CA). Cells and tissue sections were examined by confocal microscopy (Fluoview 500, Olympus America Inc., Center Valley, PA)."}, "PPC-1 cells [5]": {"system": "PPC-1 cells", "assay": "Confocal immunofluorescence co-staining of phage/qdots with cellular markers in PPC-1 cells", "type": "cell-based, human"}, "[6]": {"system": "primary cells derived from normal mouse organs", "assay": "RPARPAR phage binding to primary cell suspensions of mouse organs at 4° C. ex vivo", "type": "cell-based", "conditions": "panel of normal mouse organs", "procedure": "as §1\nas §2, with “Incubation at 37° C. followed by low pH wash (glycine-HCl, pH 2.5) was used to assess the amount of internalized phage.” left out"}, "[7]": {"assay": "Tissue distribution of intravenously injected phage in mice (titration, immunofluorescence)", "type": "in vivo, mouse", "conditions": "intravenous", "procedure": "as §1, §2\nIn vivo phage homing studies in mice were carried out by injecting 10^10 pfu of T7 phage into tail vein and 10 minutes to 1 hour later, the mice were perfused with DMEM through the left ventricle of the heart. The organs of interest were collected, homogenized in 1% NP40 and the phage was quantified by titration."}},
  "note": "“Also recorded” adds a separate entry of the source.",
  "data": [
    {"substance": "RPARPAR [RPARPAR phage]", "values": [
      {"measurement": "Phage binding", "setting": "4T1", "result": "bound"},
      {"measurement": "Phage binding", "setting": "PDAC1.3", "result": "bound"},
      {"measurement": "Phage binding", "setting": "[1]", "result": "binding was also seen"},
      {"measurement": "Phage binding", "setting": "[2]", "result": "bound"},
      {"measurement": "Phage binding over control phage", "setting": "M21 melanoma cells", "result": "did not bind; also recorded: do not bind nor internalize"},
      {"measurement": "Phage binding", "setting": "[3]", "result": "binding was also seen"},
      {"measurement": "Phage binding", "setting": "MIA PaCa-2", "result": "bound"},
      {"measurement": "Phage binding", "setting": "B16F10", "result": "bound"},
      {"measurement": "Effect of pre-incubation with UV-inactivated phage on iRGD phage internalization", "setting": "PPC-1 cells [4]", "result": "decreased"},
      {"measurement": "Phage internalization into PPC-1 cells (in words)", "setting": "PPC-1 cells [4]; 37° C.", "result": "robust binding and internalization"},
      {"measurement": "Time to perinuclear accumulation", "setting": "PPC-1 cells [4]; phage, 37° C.", "result": 1, "unit": "h"},
      {"measurement": "Time to plasma membrane association", "setting": "PPC-1 cells [4]; phage, 37° C.", "result": 15, "unit": "min"},
      {"measurement": "Overlap of phage immunoreactivity with labeled cholera toxin subunit B", "setting": "PPC-1 cells [5]; 180 minutes", "result": "significant overlap"},
      {"measurement": "Overlap of internalized phage staining with subcellular compartment markers", "setting": "PPC-1 cells [5]; LAMP-1, caveolin-1, calnexin, EEA-1, 60 minutes", "result": "did not show any clear overlap"},
      {"measurement": "Phage binding", "setting": "[6]", "result": "also bound"},
      {"measurement": "Penetration into tissue parenchyma (lungs)", "setting": "[7]", "result": "able to penetrate into tissue parenchyma"},
      {"measurement": "Phage immunoreactivity in lung sections", "setting": "[7]", "result": "seen throughout the tissue"},
      {"measurement": "Accumulation of intravenously injected phage in the heart", "setting": "[7]; 20 minutes of circulation", "result": "to a lesser extent"},
      {"measurement": "Accumulation of intravenously injected phage in the lungs", "setting": "[7]; 20 minutes of circulation", "result": "accumulated strongly"}
    ]}
  ]
}
